Measurements as given in PMC11881035, “^68Ga-Labeled Glycopeptides as Effective Tools for Liver Function Imaging” (Molecular Pharmaceutics, 2025).
Like-named read-outs stand apart in the source and are kept apart here. Where a SMILES comes first, the peptide text is derived from it. The star is where a group is joined. X1 = O=C(CCCCc1cn([C@@H]2O[C@H](CO)[C@H](O)[C@H](O)[C@H]2O)nn1)*; NODAGA = O=C(O)CN1CCN(CC(=O)O)CCN(C(CCC(=O)*)C(=O)O)CC1; GABA = NCCCC(=O)O

Tests used:
[1] = protein binding in human serum; type: in vitro ADME; conditions: human, serum
Procedure: (§1) The ^68Ge/^68Ga generator, devices for analytical HPLC, semipreparative HPLC, mass spectrometry, radio-thin layer chromatography, gamma counter and animal models for biodistribution and imaging studies including the image reconstruction procedures were the same as described before.[22] Stability assays in PBS and human blood serum, protein binding as well as determination of log D values followed established protocols.[25] Binding affinities (IC50) of selected ligands were determined in an isolated receptor-based assay according to a previously published procedure with minor modifications.[22] Dilutions of nonradioactive complexes were made with PBS + 0.1% BSA (10^–5–10^–12 M). Preparation of [^125I]I-Asialoorosomucoid which serves as the radioactive standard ligand has been published recently.[21]

complex stability in PBS = type: physicochemical
Procedure: as §1

log D determination = type: physicochemical
Procedure: as §1

[2] = biodistribution in healthy BALB/c mice; conditions: mouse, in vivo
Procedure: as §1
(§2) Animal experiments were performed in accordance with the Austrian animal experiments law (BGBl. I Nr. 114/2012) and the institution’s animal welfare standards as approved by the Austrian Federal Ministry of Education, Science and Research (BMBWF, 2022–0.311.708). Imaging experiments were conducted at Werner Siemens Imaging Center (Tübingen, Germany) according to the German animal welfare act as approved by the local authorities (R5/19 G, R09/21 G).
(§3) Figure 2 Biodistribution data (% ID/g) of ^68Ga-labeled NODAGA-GalNAc-NonaLysan, NODAGA-NonaLysan, NODAGA-HexaLysan, and NODAGA-TriLysan in healthy BALB/c mice at 10, 30, and 60 min p.i. (100 pmol, 1 MBq).

[3] = complex stability in human blood serum; type: in vitro ADME
Procedure: as §1

[4] = test system: healthy female BALB/c mice; assay: biodistribution in healthy BALB/c mice; conditions: mouse, in vivo
Procedure: as §1, §2, §3

[5] = 2 min, read-out: protein binding (%) (converted)
[6] = 30 min, read-out: protein binding (%) (converted)

NC(=O)CNC(=O)CNC(=O)[C@H](CCCCNC(=O)CCCCc1cn([C@@H]2O[C@H](CO)[C@H](O)[C@H](O)[C@H]2O)nn1)NC(=O)CNC(=O)CNC(=O)[C@H](CCCCNC(=O)CCCCc1cn([C@@H]2O[C@H](CO)[C@H](O)[C@H](O)[C@H]2O)nn1)NC(=O)CNC(=O)CNC(=O)[C@H](CCCCNC(=O)CCCCc1cn([C@@H]2O[C@H](CO)[C@H](O)[C@H](O)[C@H]2O)nn1)NC(=O)CCCNC(=O)CCC(C(=O)O)N1CCN(CC(=O)O)CCN(CC(=O)O)CC1 (stereo partly drawn) [[^68Ga]Ga-NODAGA-TriLysan, metal not drawn] ({NODAGA-GABA}-K(X1)GGK(X1)GGK(X1)GG-NH2)
fraction unbound [1, 5]: 0.924
fraction unbound [1, 6]: 0.945
fraction unbound ([1]; 60 min, read-out: protein binding (%) (converted)): 0.908
fraction unbound ([1]; 120 min, read-out: protein binding (%) (converted)): 0.864
complex stability in PBS (% intact ligand) (complex stability in PBS; 2 min): 99.7%
complex stability in PBS (% intact ligand) (complex stability in PBS; 30 min): 99.8%
complex stability in PBS (% intact ligand) (complex stability in PBS; 60 min): 99.8%
complex stability in PBS (% intact ligand) (complex stability in PBS; 120 min): 99.8%
logD (log D determination): -3.52
tissue uptake at 10 min ([2]; 10 min p.i., read-out: Blood uptake): 3.6 ± 0.1 %ID/g
tissue uptake at 10 min ([2]; 10 min p.i., read-out: Femur uptake): 0.9 ± 0.3 %ID/g
tissue uptake at 10 min ([2]; 10 min p.i., read-out: Heart uptake): 1.4 ± 0.01 %ID/g
tissue uptake at 10 min ([2]; 10 min p.i., read-out: Intestine uptake): 1.2 ± 0.3 %ID/g
tissue uptake at 10 min ([2]; 10 min p.i., read-out: Kidneys uptake): 7.6 ± 1.4 %ID/g
tissue uptake at 10 min ([2]; 10 min p.i., read-out: Liver uptake): 9.5 ± 1.6 %ID/g
tissue uptake at 10 min ([2]; 10 min p.i., read-out: Lung uptake): 2.6 ± 0.2 %ID/g
tissue uptake at 10 min ([2]; 10 min p.i., read-out: Muscle uptake): 0.9 ± 0.1 %ID/g
tissue uptake at 10 min ([2]; 10 min p.i., read-out: Pancreas uptake): 1 ± 0.04 %ID/g
tissue uptake at 10 min ([2]; 10 min p.i., read-out: Spleen uptake): 1 ± 0.01 %ID/g
tissue uptake at 10 min ([2]; 10 min p.i., read-out: Stomach uptake): 1.6 ± 0.2 %ID/g
tissue uptake at 0.5 h ([2]; 30 min p.i., read-out: Blood uptake): 1.6 ± 0.2 %ID/g
tissue uptake at 0.5 h ([2]; 30 min p.i., read-out: Femur uptake): 0.4 ± 0.02 %ID/g
tissue uptake at 0.5 h ([2]; 30 min p.i., read-out: Heart uptake): 0.6 ± 0.04 %ID/g
tissue uptake at 0.5 h ([2]; 30 min p.i., read-out: Intestine uptake): 1.1 ± 0.02 %ID/g
tissue uptake at 0.5 h ([2]; 30 min p.i., read-out: Kidneys uptake): 5 ± 0.02 %ID/g
tissue uptake at 0.5 h ([2]; 30 min p.i., read-out: Liver uptake): 9.4 ± 2 %ID/g
tissue uptake at 0.5 h ([2]; 30 min p.i., read-out: Lung uptake): 1.2 ± 0.1 %ID/g
tissue uptake at 0.5 h ([2]; 30 min p.i., read-out: Muscle uptake): 0.4 ± 0.04 %ID/g
tissue uptake at 0.5 h ([2]; 30 min p.i., read-out: Pancreas uptake): 0.4 %ID/g
tissue uptake at 0.5 h ([2]; 30 min p.i., read-out: Spleen uptake): 0.4 ± 0.02 %ID/g
tissue uptake at 0.5 h ([2]; 30 min p.i., read-out: Stomach uptake): 0.9 ± 0.1 %ID/g
tissue uptake at 1 h ([2]; 60 min p.i., read-out: Blood uptake): 0.3 ± 0.01 %ID/g
tissue uptake at 1 h ([2]; 60 min p.i., read-out: Femur uptake): 0.1 ± 0.01 %ID/g
tissue uptake at 1 h ([2]; 60 min p.i., read-out: Heart uptake): 0.2 ± 0.01 %ID/g
tissue uptake at 1 h ([2]; 60 min p.i., read-out: Intestine uptake): 1 ± 0.3 %ID/g
tissue uptake at 1 h ([2]; 60 min p.i., read-out: Kidneys uptake): 2 ± 0.3 %ID/g
tissue uptake at 1 h ([2]; 60 min p.i., read-out: Liver uptake): 9.2 ± 0.3 %ID/g
tissue uptake at 1 h ([2]; 60 min p.i., read-out: Lung uptake): 0.5 ± 0.1 %ID/g
tissue uptake at 1 h ([2]; 60 min p.i., read-out: Muscle uptake): 0.1 %ID/g
tissue uptake at 1 h ([2]; 60 min p.i., read-out: Pancreas uptake): 0.2 ± 0.01 %ID/g
tissue uptake at 1 h ([2]; 60 min p.i., read-out: Spleen uptake): 0.2 %ID/g
tissue uptake at 1 h ([2]; 60 min p.i., read-out: Stomach uptake): 0.3 ± 0.01 %ID/g
complex stability in serum (% intact ligand) ([3]; 2 min): 99.9%
complex stability in serum (% intact ligand) ([3]; 30 min): 99.9%
complex stability in serum (% intact ligand) ([3]; 60 min): 99.9%
complex stability in serum (% intact ligand) ([3]; 120 min): 99.9%

NC(=O)CNC(=O)CNC(=O)[C@H](CCCCNC(=O)CCCCc1cn([C@@H]2O[C@H](CO)[C@H](O)[C@H](O)[C@H]2O)nn1)NC(=O)CNC(=O)CNC(=O)[C@H](CCCCNC(=O)CCCCc1cn([C@@H]2O[C@H](CO)[C@H](O)[C@H](O)[C@H]2O)nn1)NC(=O)CNC(=O)CNC(=O)[C@H](CCCCNC(=O)CCCCc1cn([C@@H]2O[C@H](CO)[C@H](O)[C@H](O)[C@H]2O)nn1)NC(=O)CNC(=O)CNC(=O)[C@H](CCCCNC(=O)CCCCc1cn([C@@H]2O[C@H](CO)[C@H](O)[C@H](O)[C@H]2O)nn1)NC(=O)CNC(=O)CNC(=O)[C@H](CCCCNC(=O)CCCCc1cn([C@@H]2O[C@H](CO)[C@H](O)[C@H](O)[C@H]2O)nn1)NC(=O)CNC(=O)CNC(=O)[C@H](CCCCNC(=O)CCCCc1cn([C@@H]2O[C@H](CO)[C@H](O)[C@H](O)[C@H]2O)nn1)NC(=O)CCCNC(=O)CCC(C(=O)O)N1CCN(CC(=O)O)CCN(CC(=O)O)CC1 (stereo partly drawn) [[^68Ga]Ga-NODAGA-HexaLysan, metal not drawn] ({NODAGA-GABA}-K(X1)GGK(X1)GGK(X1)GGK(X1)GGK(X1)GGK(X1)GG-NH2)
fraction unbound [1, 5]: 0.824
fraction unbound [1, 6]: 0.782
fraction unbound ([1]; protein binding (%)): 0.785
logD (log D determination): -4.34
Liver uptake ([4]; 0.5 h): 55.7 ± 7.4 % ID/g
Femur uptake ([4]; 1 h): 0 % ID/g
tissue uptake at 10 min ([2]; Blood uptake): 2.1 ± 0.04 %ID/g
tissue uptake at 0.5 h ([2]; Blood uptake): 0.6 ± 0.1 %ID/g
tissue uptake at 1 h ([2]; Blood uptake): 1.1 ± 0.4 %ID/g
tissue uptake at 10 min ([2]; Femur uptake): 0.5 ± 0.1 %ID/g
tissue uptake at 0.5 h ([2]; Femur uptake): 0.3 ± 0.03 %ID/g
tissue uptake at 10 min ([2]; Heart uptake): 0.9 ± 0.1 %ID/g
tissue uptake at 0.5 h ([2]; Heart uptake): 0.4 ± 0.1 %ID/g
tissue uptake at 1 h ([2]; Heart uptake): 0.3 ± 0.02 %ID/g
tissue uptake at 10 min ([2]; Intestine uptake): 1.2 ± 0.3 %ID/g
tissue uptake at 0.5 h ([2]; Intestine uptake): 4 ± 0.3 %ID/g
tissue uptake at 1 h ([2]; Intestine uptake): 5.9 ± 1.7 %ID/g
tissue uptake at 10 min ([2]; Kidneys uptake): 4.8 ± 0.3 %ID/g
tissue uptake at 0.5 h ([2]; Kidneys uptake): 1.9 ± 0.2 %ID/g
tissue uptake at 1 h ([2]; Kidneys uptake): 1.3 ± 0.3 %ID/g
tissue uptake at 10 min ([2]; Liver uptake): 54.8 ± 3 %ID/g
tissue uptake at 0.5 h ([2]; Liver uptake): 55.5 ± 7.4 %ID/g
tissue uptake at 1 h ([2]; Liver uptake): 45.9 ± 11.8 %ID/g
tissue uptake at 10 min ([2]; Lung uptake): 1.6 ± 0.2 %ID/g
tissue uptake at 0.5 h ([2]; Lung uptake): 0.8 ± 0.1 %ID/g
tissue uptake at 1 h ([2]; Lung uptake): 0.6 ± 0.2 %ID/g
tissue uptake at 10 min ([2]; Muscle uptake): 0.9 ± 1.2 %ID/g
tissue uptake at 0.5 h ([2]; Muscle uptake): 0.6 ± 0.03 %ID/g
tissue uptake at 1 h ([2]; Muscle uptake): 0.4 ± 0.04 %ID/g
tissue uptake at 10 min ([2]; Pancreas uptake): 0.9 ± 0.1 %ID/g
tissue uptake at 0.5 h ([2]; Pancreas uptake): 0.7 ± 0.1 %ID/g
tissue uptake at 1 h ([2]; Pancreas uptake): 0.5 ± 0.1 %ID/g
tissue uptake at 10 min ([2]; Spleen uptake): 0.5 ± 0.1 %ID/g
tissue uptake at 0.5 h ([2]; Spleen uptake): 0.2 ± 0.1 %ID/g
tissue uptake at 1 h ([2]; Spleen uptake): 0.2 ± 0.02 %ID/g
tissue uptake at 10 min ([2]; Stomach uptake): 1.3 ± 0.3 %ID/g
tissue uptake at 0.5 h ([2]; Stomach uptake): 1.2 ± 0.3 %ID/g
tissue uptake at 1 h ([2]; Stomach uptake): 0.4 ± 0.1 %ID/g
